Assay: Bioavailability of salmon calcitonin after nasal application (plasma concentration by radio-immuno-assay)
Parameters: species or system rhesus monkeys
Conditions: rhesus monkey, in vivo
Description: The drug compound concentration was measured in the plasma by radio-immuno-assay. The salmon calcitonin determinations were carried out up to 6 hours after application.

In the case of salmon calcitonin, the “bioavailability as % of the value measured with the best known resorption promoter” value is reported as 67% and the “bioavailability as % of the values found after application without resorption promoter” value is reported as over 400%.

— patent US5122520A, “Acid addition salts of amidated taurine or glycine, their preparation and use” (Sandoz Ltd., priority 1988, dated 1992)
